In article PMC4644980, “The FDA-approved natural product dihydroergocristine reduces the production of the Alzheimer’s disease amyloid-β peptides” (Scientific Reports, 2015):
pIC50: −log10 of the molar value. Where a name gives a salt, the structure may show the parent alone. Where a SMILES comes first, the peptide text is derived from it. The star is where a group is joined. Pyrrolidide = C1CCN(*)C1

Columns and labels:
[1] = system: hAPP cleavage by γ-secretase; test: cleavage of APP-CTFs in HEK293 cells overexpressing hAPP; type: cell-based, human; details: 20 or 50 μM
purified γ-secretase = molecular target: T1, purified γ-secretase (Homo sapiens, UniProt P49768+Q92542); test: cell-free in vitro C100-Flag γ-secretase assay with purified enzyme; type: biochemical; details: for The potency of compound (in vitro C100 γ-secretase assay): 200 µM, compared with DHEC, estimated by densitometry; for inhibition of γ-secretase activity (C100-Flag cleavage): 200 μM; for inhibition of γ-secretase activity (C100-Flag cleavage) / pIC50: purified γ-secretase; for pIC50: AICD-Flag densitometry, read-out: IC50 in the in vitro γ-secretase activity assay (C100-Flag processing)
T1 construct: made in house
Text: The density of the AICD-Flag and Aβ total bands was quantified by Odyssey software (Supplementary data Fig. S5). […] The residue was then separated by Bicine/urea SDS-PAGE, together with an Aβ standard of synthetic human Aβ38, Aβ40 and Aβ42, followed by Western blot detection with anti-Aβ antibody (6E10, left panel), or quantification by ELISA (right panel). Black bars, Aβ [1–40]; gray bars, Aβ[1–42]. Data were presented as the means ± sd. […] The change in response units over time is shown. […]
γ-Secretase was purified from S-20 cells as described previously. The recombinant APP-based protein substrate of γ-secretase, namely human C100-Flag, was overexpressed in E. coli and purified by using an anti-Flag M2 resin[31]. Full length human NCT was purified as described previously (for details, see Supplementary information)[32].
Cell-free in vitro γ-secretase assays using the recombinant C100-Flag substrate and purified γ-secretase were performed as described in the Supplementary information.
Aβ1-x peptides secreted in the cell media were quantitatively measured by ELISA (IBL, Gunma, Japan) according to the standard protocol from the manufacturer. Aβ40 and Aβ42 generated in the C100-Flag γ-secretase assays stopped with 0.5% SDS (final concentration) were quantified with the human Beta Amyloid or [1–42] colorimetric ELISA kit, respectively. […]
γ-Secretase activity assays
γ-Secretase purified from S-20 cells was solubilized in 0.2% (w/v) CHAPSO in 50 mM HEPES buffer (pH 7.0) containing of 150 mM NaCl, 5 mM MgCl2 and 5 mM CaCl2, and incubated with 0.1% (w/v) PC and 1 μM or otherwise indicated […]
concentrations of substrate at 37 °C for 4 h, after which the enzymatic reactions were stopped by adding 0.5% SDS (final concentration). The samples were analyzed by Western Blot for AICD-Flag or Aβ. […]

SMILES	cleavage of APP-CTFs / accumulation of APP-CTFs [1]	The potency of compound (in vitro C100 γ-secretase assay) (purified γ-secretase)	inhibition of γ-secretase activity (C100-Flag cleavage) (purified γ-secretase)	pIC50 (purified γ-secretase)
CC(C)C[C@H]1C(=O)N2CCC[C@H]2[C@]2(O)O[C@](NC(=O)[C@@H]3C=C4c5cccc6[nH]c(Br)c(c56)C[C@H]4N(C)C3)(C(C)C)C(=O)N12 [2-Bromo-α-ergocryptine, 2-bromo-α-ergocryptine methanesulfonate salt]	inactive	+++	retained the ability to inhibit	~4.30
CC(=O)N[C@H](C(=O)N[C@@H](Cc1ccccc1)C(=O)N1CCCC1)C(C)C [AMBE] (Ac-Val-Phe-Pyrrolidide)		-	did not show any inhibitory activity	
CC(C)C[C@H]1C(=O)N2CCC[C@H]2[C@]2(O)O[C@](NC(=O)OCc3ccccc3)(C(C)C)C(=O)N12 [CABA, [2R-(2α, 5α, 10aβ, 10bα)]-[Octahydro-10b-hydroxy-2-(1-methylethyl)-5-(2-methylpropyl)-3,6-dioxo-8H-oxazolo[3,2-a]pyrrolo[2,1-c]pyrazin-2-yl]-carbamic acid]	accumulation of APP-CTFs only when administered at a concentration of 50 μM			~4.00
CN1C[C@H](C(=O)N[C@]2(C)O[C@@]3(O)[C@@H]4CCCN4C(=O)[C@H](Cc4ccccc4)N3C2=O)C[C@@H]2c3cccc4[nH]cc(c34)C[C@H]21 [Dihydro-ergotamine (DHE), dihydroergotamine methanesulfonate salt]		-	did not inhibit	
CN1C[C@H](C(=O)N[C@]2(C)O[C@@]3(O)[C@@H]4CCCN4C(=O)[C@H](Cc4ccccc4)N3C2=O)C=C2c3cccc4[nH]cc(c34)C[C@H]21 [Ergotamine, ergotamine tartrate]		-	did not inhibit	
CN1C[C@H](CNC(=O)OCc2ccccc2)C[C@@H]2c3cccc4c3c(cn4C)C[C@H]21 [Metergoline, metergoline]		-	did not inhibit	
CC[C@@H](CO)NC(=O)[C@@H]1C=C2c3cccc4[nH]cc(c34)C[C@H]2N(C)C1 [Methyl-ergometrine, methylergometrine]		-	did not inhibit	
CCCN1C[C@H](CSC)C[C@@H]2c3cccc4[nH]cc(c34)C[C@H]21 [Pergolide, pergolide mesylate salt]		-	did not inhibit	
CC(C)C[C@H]1C(=O)N2CCC[C@H]2[C@]2(O)O[C@](NC(=O)[C@@H]3C=C4c5cccc6[nH]cc(c56)C[C@H]4N(C)C3)(C(C)C)C(=O)N12 [α-Ergocryptine, α-ergocryptine]		+++	inhibited	
CCC(C)[C@H]1C(=O)N2CCC[C@H]2[C@]2(O)O[C@](NC(=O)[C@@H]3C[C@@H]4c5cccc6[nH]cc(c56)C[C@H]4N(C)C3)(C(C)C)C(=O)N12 (stereo partly drawn) [β-Dihydro-ergocryptine, β-Dihydroergocryptine]		+	inhibited	
